We go through two compounds from patent publication US20140249076A1, “AMYLIN-CALCITONIN CHIMERIC PEPTIDES CONJUGATED TO DURATION ENHANCING MOIETIES” (AMYLIN PHARMACEUTICALS, LLC, priority 2011, published 2014).

One assay deals with T1, Calcitonin receptor (Rattus norvegicus, UniProt P32214).
T1 construct: expressed in transfected cells; host or cells: C1a-HEK cells (HEK cells stably expressing the receptor), membranes
T1 sequence (P32214 25-479 isoform P32214-2 limits assumed): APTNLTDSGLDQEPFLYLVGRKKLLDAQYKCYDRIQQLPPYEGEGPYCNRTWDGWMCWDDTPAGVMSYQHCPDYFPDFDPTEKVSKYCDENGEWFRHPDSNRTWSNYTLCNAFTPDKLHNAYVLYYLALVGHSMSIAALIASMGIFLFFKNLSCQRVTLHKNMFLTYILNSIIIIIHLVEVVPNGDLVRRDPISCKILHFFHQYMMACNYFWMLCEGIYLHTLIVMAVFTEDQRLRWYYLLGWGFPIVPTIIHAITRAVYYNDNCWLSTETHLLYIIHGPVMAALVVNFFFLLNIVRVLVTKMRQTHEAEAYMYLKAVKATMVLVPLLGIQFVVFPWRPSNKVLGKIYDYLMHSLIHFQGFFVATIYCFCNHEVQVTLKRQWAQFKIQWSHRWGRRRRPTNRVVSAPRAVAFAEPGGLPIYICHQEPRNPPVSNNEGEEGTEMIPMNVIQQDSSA
Nature of the assay: Calcitonin receptor binding assay (125I-human calcitonin, C1a-HEK cell membranes). To be noted: Table 8. As for the experimental part:
Calcitonin receptor binding assay. C1a-HEK cell membranes can be incubated with approximately […] (final concentration) of ^125I-human calcitonin (PerkinElmer, Waltham, Mass.) and increasing concentrations of test compound for 1 hour at ambient temperature in, for example, 96-well polystyrene plates. […] Dried glass fiber plates can be combined with scintillant and counted on a multiwell Perkin Elmer scintillation counter.
(§1) A variety of receptor binding and functional activity assays were conducted using the peptide conjugates described herein. Receptor binding activity can be expressed, for example in Table 6, as an IC50 value, calculated from the raw data using an iterative curve-fitting program using a 4-parameter logistic equation (PRISM®, GraphPAD Software, La Jolla, Calif.), as known in the art.
For the calcitonin receptor binding assay, C1a-HEK cell membranes were incubated with approximately […] (final concentration) of ^125I-human calcitonin (PerkinElmer, Waltham, Mass.) and increasing concentrations of test compound for 1 hour at ambient temperature in 96-well polystyrene plates. […] Dried glass fiber plates were combined with scintillant and counted on a multiwell Perkin Elmer scintillation counter.

The target in a further assay is T2, Amylin receptor (Rattus norvegicus, UniProt P32214).
T2 construct: from tissue; read as rat nucleus accumbens membranes
T2 sequence (P32214 25-516): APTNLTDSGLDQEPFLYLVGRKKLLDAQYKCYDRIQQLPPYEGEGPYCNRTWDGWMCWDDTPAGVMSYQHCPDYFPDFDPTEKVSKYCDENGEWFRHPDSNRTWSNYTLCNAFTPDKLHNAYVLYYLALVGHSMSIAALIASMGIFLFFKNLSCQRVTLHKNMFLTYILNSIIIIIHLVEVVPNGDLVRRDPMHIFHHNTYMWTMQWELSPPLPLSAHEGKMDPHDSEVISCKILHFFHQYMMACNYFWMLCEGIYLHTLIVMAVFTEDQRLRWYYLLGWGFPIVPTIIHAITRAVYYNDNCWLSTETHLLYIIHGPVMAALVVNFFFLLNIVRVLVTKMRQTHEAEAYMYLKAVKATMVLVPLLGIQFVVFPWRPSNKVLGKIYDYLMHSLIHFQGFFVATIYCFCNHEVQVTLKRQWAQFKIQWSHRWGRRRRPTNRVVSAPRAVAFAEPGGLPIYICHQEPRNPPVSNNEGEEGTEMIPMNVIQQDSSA
T2 sequence (Q9JJ74 27-148 partner): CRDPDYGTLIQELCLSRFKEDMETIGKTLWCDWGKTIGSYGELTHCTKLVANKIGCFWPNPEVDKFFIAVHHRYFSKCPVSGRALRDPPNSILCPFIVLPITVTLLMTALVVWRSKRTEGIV
Put plainly: Amylin receptor binding assay (125I-rat amylin, RNA membranes). To be noted: Table 8. As for the experimental part:
Amylin receptor binding assay. RNA membranes can be incubated with approximately […] (final concentration) of ^125I-rat amylin (Bolton-Hunter labeled, PerkinElmer, Waltham, Mass.) and increasing concentrations of test compound for 1 hour at ambient temperature in, for example, 96-well polystyrene plates. […] Dried glass fiber plates can be combined with scintillant and counted on a multi-well Perkin Elmer scintillation counter.
as §1
For the amylin receptor binding assay, RNA membranes were incubated with approximately […] (final concentration) of ^125I-rat amylin (Bolton-Hunter labeled, PerkinElmer, Waltham, Mass.) and increasing concentrations of test compound for 1 hour at ambient temperature in 96-well polystyrene plates. […] Dried glass fiber plates were combined with scintillant and counted on a multi-well Perkin Elmer scintillation counter, as well known in the art.

The test system of another assay is mice. Put plainly: Forced swim test (FST). To be noted: qualitative result; 0.03 mg/kg dosing, as in Example 8. The class given is in vivo, mouse. From the text: The forced swim test (FST) is a commonly used paradigm to evaluate antidepressant activity of drugs. The FST is based on measurement of the animal's floating time in a tank filled with water. When rats or mice are forced to swim in a deep cylinder with tepid water they become nearly immobile and cease trying to escape. Without wishing to be bound by any theory, it is believe that this characteristic immobile posture reflects a depressive-like state which is readily influenced by a wide variety of antidepressants. See, e.g., Hedou et al., 2001, Pharmacol, Biochem. Behay. 70:65-76; Chaki et al., 2003, J. Pharmacol. Exp. Ther. 304:818-826; Porsolt et al., 1977, Nature 266:730-732. Antidepressants decrease the immobility time in the FST. Vehicle or test compound can be delivered continuously for two weeks to mice by subcutaneously implanted osmotic pumps prior to the FST. Indeed, any route of administration (e.g., intraperitoneal, subcutaneous, oral and the like) is available. Mice can be placed in the water tank for assessment of climbing, swimming, and immobility over a defined trial session, typically 6 minutes. Test session parameters for mice and rats are typically different, as known in the art.
The forced swim test (FST) is a commonly used paradigm to evaluate antidepressant activity of drugs. […] Specifically, vehicle or test compound was delivered continuously for two weeks to mice by subcutaneously implanted osmotic pumps prior to the FST assay, by methods well known in the art. On day one, the patients were introduced into the tank for a 15 minute pre-swim session. On day two, the patients were placed back into the water tank for assessment of climbing, swimming, and immobility over a 6 minute trial session. The rate of compound infusion was 0.03 mg/kg/day.

The test system of assay [1] is male Harlan Sprague-Dawley rats. Nature of the assay: Stress-induced hyperthermia (SIH) assay. The note with it: 0.1 mg/kg IP, 18 hr pretreatment. The class given is in vivo, rat. The source says: Stress-induced hyperthermia (SIH). Body temperature and emotional state are closely related in humans. Without wishing to be bound by any theory, it is believed that stress-induced hyperthermia (SIH) in rodents has predictive validity for certain human anxiety/stress disorders. The SIH assay assesses the effect of test agents (e.g, anxiolytics) on core body temperature following restraint stress. See, for example, Zethof et al., 1994, Physiol. Behay. 55:109-115. Anxiolytics typically blunt the increase in body temperature, or hyperthermic response, following stress exposure. […] Test animals can then be patiented to two sequential rectal temperature measurements at a measured time interval (e.g, 30 min). The difference between the second temperature reading and the first temperature reading (ΔT) is the stress-induced hyperthermic response.
As described above, it is believed that stress-induced hyperthermia (SIH) in rodents (e.g., rats) has predictive validity for certain human anxiety/stress disorders. […] Temperature readings were obtained remotely at the time of injection and at t=0 and t=30 minutes. The SIH response was defined as the change from t=30 back to t=0 minutes, while effects on basal temperature were calculated as the change from t=0 back to the time of injection.

Numbered stars: 1 amine (or outer) side, 2 acyl side, 3 side chain; on linkers, the order of the positions; unused ones are H or OH. Bridge positions count the residues as written; N and C are the ends. Side chains are listed from the residue outwards. Peptide text beside a SMILES is read from it. * marks the point of attachment. γGlu = O=C(O)[C@H](CCC(=O)[*:2])N[*:1]; Palmitoyl = CCCCCCCCCCCCCCCC(=O)*

As usually defined, the IC50 is the midpoint of a concentration-inhibition curve.

For the compound `CC(C)C[C@H](NC(=O)[C@H](C)NC(=O)[C@@H]1CSSC[C@H](NC(=O)[C@@H](N)CCCCN)C(=O)N[C@@H](CC(N)=O)C(=O)N[C@@H]([C@@H](C)O)C(=O)N[C@@H](C)C(=O)N[C@@H]([C@@H](C)O)C(=O)N1)C(=O)N[C@@H](CCC(N)=O)C(=O)N[C@@H](CCCNC(=N)N)C(=O)N[C@@H](CC(C)C)C(=O)N[C@@H](C)C(=O)N[C@@H](CCC(N)=O)C(=O)N[C@@H](CCC(=O)O)C(=O)N[C@@H](CC(C)C)C(=O)N[C@@H](Cc1c[nH]cn1)C(=O)N[C@@H](CCCNC(=N)N)C(=O)N[C@@H](CC(C)C)C(=O)N[C@@H](CCC(N)=O)C(=O)N[C@H](C(=O)N[C@@H](Cc1ccc(O)cc1)C(=O)N1CCC[C@H]1C(=O)N[C@@H](CCCNC(=N)N)C(=O)N[C@H](C(=O)N[C@@H](CC(N)=O)C(=O)N[C@H](C(=O)NCC(=O)N[C@@H](CO)C(=O)N[C@@H](CC(N)=O)C(=O)N[C@H](C(=O)N[C@@H](Cc1ccc(O)cc1)C(N)=O)[C@@H](C)O)C(C)C)[C@@H](C)O)[C@@H](C)O` [Cmpd 17] (H-KCNTATCALQRLAQELHRLQTYPRTNVGSNTY-NH2; disulfide 2-7; N-terminus assumed), the IC50 on Calcitonin receptor turned out to be 0.095 nM; on Amylin receptor it was 0.028 nM. In the assay with mice, the “FST Assay, 0.03 mg/kg” value is on record as “Inactive”.

Consider `CCCCCCCCCCCCCCCC(=O)N[C@@H](CCC(=O)NCCCC[C@H](NC(=O)[C@@H](NC(=O)[C@H](CCCNC(=N)N)NC(=O)[C@@H]1CCCN1C(=O)[C@H](Cc1ccc(O)cc1)NC(=O)[C@@H](NC(=O)[C@H](CCC(N)=O)NC(=O)[C@H](CC(C)C)NC(=O)[C@H](CCCNC(=N)N)NC(=O)[C@H](Cc1c[nH]cn1)NC(=O)[C@H](CC(C)C)NC(=O)[C@H](CCC(=O)O)NC(=O)[C@H](CCC(N)=O)NC(=O)[C@H](C)NC(=O)[C@H](CC(C)C)NC(=O)[C@H](CCCNC(=N)N)NC(=O)[C@H](CCC(N)=O)NC(=O)[C@H](CC(C)C)NC(=O)[C@H](C)NC(=O)[C@@H]1CSSC[C@H](NC(=O)[C@@H](N)CCCCN)C(=O)N[C@@H](CC(N)=O)C(=O)N[C@@H]([C@@H](C)O)C(=O)N[C@@H](C)C(=O)N[C@@H]([C@@H](C)O)C(=O)N1)[C@@H](C)O)[C@@H](C)O)C(=O)N[C@H](C(=O)NCC(=O)N[C@@H](CO)C(=O)N[C@@H](CC(N)=O)C(=O)N[C@H](C(=O)N[C@@H](Cc1ccc(O)cc1)C(N)=O)[C@@H](C)O)C(C)C)C(=O)O` [Cmpd 189, [K^26ε-(γ-Glu(Nα-C16-Chain))]-Cmpd 17] (H-KCNTATCALQRLAQELHRLQTYPRTK([γGlu-Palmitoyl])VGSNTY-NH2; disulfide 2-7 (inferred); N-terminus assumed), for which the “FST Assay, 0.03 mg/kg” value in the assay with mice is “Active”. In addition, the SIH response entry in assay [1] is “statistically insignificant reduction in SIH”.
